Starred links: 1 amine or outer side, 2 acyl side, 3 side chain; linkers in the order of their positions; H or OH if unused. Positions of bridges follow the written chain, without caps; N, C: chain ends. Non-standard residues stand in square brackets, D forms with d. Residues, ends and D or L forms follow the SMILES beside them. Phe(3,4,5-F3) = N[C@@H](Cc1cc(F)c(F)c(F)c1)C(=O)O; X12 = O=C([C@H](Cc1cc(Cl)c(F)c(Cl)c1)N[*:1])[*:2]; X14 = O=C([C@H](Cc1cc(F)c(F)c(Cl)c1)N[*:1])[*:2]; Phe(4-CH2NH2) = NCc1ccc(C[C@H](N)C(=O)O)cc1; Pro(4R-NH2) = N[C@H]1CN[C@H](C(=O)O)C1; X11 = CC1(C)CC[C@H](C(=O)[*:2])N1[*:1]; d(cisHyp) = O=C(O)[C@H]1C[C@@H](O)CN1; NMeF = CN[C@@H](Cc1ccccc1)C(=O)O; dNMeE = CN[C@H](CCC(=O)O)C(=O)O; NMeNle = CCCC[C@H](NC)C(=O)O; dPip = O=C(O)[C@H]1CCCCN1; dAze = O=C(O)[C@H]1CCN1; Dap = NC[C@H](N)C(=O)O; Sar = CNCC(=O)O
Legend:
Human PD-L1/PD-1 = biological target: T1, Human PD-L1/PD-1 (Homo sapiens, UniProt Q9NZQ7); assay: HTRF PD-1-Ig/PD-L1-His binding assay (human PD-L1); conditions: cluster symbol; read-out: HTRF IC50 cluster
T1 construct: made in house; host or cells: HEK293T
Summary of the method: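 Soluble Fc-fused PD-1 and His-tagged PD-L1 (truncated before the transmembrane region) were combined in dPBS with 0.1% (w/v) BSA and 0.05% (v/v) Tween-20. Binding was read by HTRF using europium cryptate anti-Ig antibody (1 nM final) and APC anti-His antibody (20 nM final).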

[1] = biological target: T2, LK35.2-hPD-L1 cells / PE-labeled PD-1-Ig (Homo sapiens, UniProt Q9NZQ7); assay: LK35.2-hPD-L1 cell binding high-content screening assay; assay type: cell-based; conditions: cluster symbol; cell line of CBA not given (LK35.2-hPD-L1 or 293T-hPD-L1); read-out: CBA IC50 cluster
T2 construct: expressed in transfected cells; host or cells: LK35.2 mouse B cell line
Summary of the method: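 Mouse LK35.2 B cells stably overexpressing human PD-L1 were cultured overnight in RPMI with 10% FCS, then given compound and PE-labeled human PD-1-Ig (1 nM final) for 1 h at 37 °C. After three dPBS washes, bound fluorescence was quantified by high-content imaging.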

T2 sequence (Q9NZQ7 19-290): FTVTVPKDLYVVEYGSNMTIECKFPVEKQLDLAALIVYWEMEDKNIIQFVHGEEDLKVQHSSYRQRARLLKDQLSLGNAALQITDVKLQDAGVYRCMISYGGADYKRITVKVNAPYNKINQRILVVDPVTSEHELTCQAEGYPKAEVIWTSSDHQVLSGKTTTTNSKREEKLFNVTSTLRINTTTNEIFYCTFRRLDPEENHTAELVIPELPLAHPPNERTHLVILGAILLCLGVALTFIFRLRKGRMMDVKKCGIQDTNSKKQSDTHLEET
T1 sequence (Q9NZQ7 with tags, fused parts or gaps): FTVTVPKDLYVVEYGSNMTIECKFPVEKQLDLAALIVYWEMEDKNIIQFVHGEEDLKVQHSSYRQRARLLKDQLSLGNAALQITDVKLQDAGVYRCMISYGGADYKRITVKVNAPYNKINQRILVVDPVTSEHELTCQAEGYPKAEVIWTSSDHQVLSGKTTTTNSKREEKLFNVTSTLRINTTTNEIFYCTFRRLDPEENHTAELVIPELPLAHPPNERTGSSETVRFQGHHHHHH

Compound	IC50 (Human PD-L1/PD-1) [nM]	IC50 [1] [nM]
CCCC[C@H]1C(=O)N2C[C@H](O)C[C@@H]2C(=O)N[C@@H](CC(=O)O)C(=O)N[C@@H](C(C)C)C(=O)N(C)[C@@H](Cc2ccccc2)C(=O)N[C@@H](Cc2ccc(O)cc2)C(=O)N2CCC[C@@H]2C(=O)N[C@@H](Cc2c[nH]c3ccccc23)C(=O)N[C@@H](Cc2ccc(O)cc2)C(=O)N[C@@H](CC(C)C)C(=O)N[C@H](C(=O)NCC(N)=O)CSCC(=O)N[C@@H](Cc2cc(F)c(F)c(F)c2)C(=O)N(C)[C@@H](Cc2ccccc2)C(=O)N1C [Example 3183] ({CH2CO}-[Phe(3,4,5-F3)][NMeF][NMeNle][d(cisHyp)]DV[NMeF]Y[dP]WYLCG-NH2; thioether N-13)	0.385 to 6.74	0.158 to 4.71
CCCC[C@H]1C(=O)N(C)CC(=O)N[C@@H](CC(=O)O)C(=O)N[C@@H](C(C)C)C(=O)N(C)[C@@H](Cc2ccccc2)C(=O)N[C@@H](Cc2ccc(O)cc2)C(=O)N2[C@H](CCC2(C)C)C(=O)N[C@@H](Cc2c[nH]c3ccccc23)C(=O)N[C@@H](Cc2ccc(O)cc2)C(=O)N[C@@H](CC(C)C)C(=O)N[C@H](C(=O)NCC(N)=O)CSCC(=O)N[C@@H](Cc2ccccc2)C(=O)N(C)[C@@H](Cc2ccccc2)C(=O)N1C [Example 3184] ({CH2CO}-F[NMeF][NMeNle][Sar]DV[NMeF]Y[X11]WYLCG-NH2; thioether N-13)	> 30.5	> 74.3
CCCC[C@H]1C(=O)N(C)CC(=O)N[C@@H](CC(=O)O)C(=O)N[C@@H](C(C)C)C(=O)N(C)[C@@H](Cc2ccccc2)C(=O)N[C@@H](Cc2ccc(O)cc2)C(=O)N(C)CC(=O)N[C@@H](Cc2c[nH]c3ccccc23)C(=O)N[C@@H](Cc2ccc(O)cc2)C(=O)N[C@@H](CC(C)C)C(=O)N[C@H](C(=O)NCC(N)=O)CSCC(=O)N[C@@H](Cc2cc(F)c(F)c(Cl)c2)C(=O)N(C)[C@@H](Cc2ccccc2)C(=O)N1C [Example 3186] ({CH2CO}-[X14][NMeF][NMeNle][Sar]DV[NMeF]Y[Sar]WYLCG-NH2; thioether N-13)	6.76 to 30.3	0.158 to 4.71
CCCC[C@H]1C(=O)N2CCC[C@@H]2C(=O)N[C@@H](CC(=O)O)C(=O)N[C@@H](C(C)C)C(=O)N(C)[C@@H](Cc2ccccc2)C(=O)N[C@@H](CCCN)C(=O)N2CCC[C@@H]2C(=O)N[C@@H](Cc2c[nH]c3ccccc23)C(=O)N[C@@H](Cc2ccc(O)cc2)C(=O)N[C@@H](CC(C)C)C(=O)N[C@H](C(=O)NCC(N)=O)CSCC(=O)N[C@@H](Cc2ccccc2)C(=O)N(C)[C@@H](Cc2ccccc2)C(=O)N1C [Example 3188] (HELM PEPTIDE1{[O=C(C[*:3])[*:2]].F.[meF].[CCCC[C@@H](C(=O)[*:2])N(C)[*:1]].[dP].D.V.[meF].[Orn].[dP].W.Y.L.C.G.[am]}$PEPTIDE1,PEPTIDE1,1:R3-14:R3$$$V2.0)	6.76 to 30.3	0.158 to 4.71
CCCC[C@H]1C(=O)N2CCC[C@@H]2C(=O)N[C@@H](CCC(=O)O)C(=O)N[C@@H](C(C)C)C(=O)N(C)[C@@H](Cc2ccccc2)C(=O)N[C@@H](CN)C(=O)N2CCC[C@@H]2C(=O)N[C@@H](Cc2c[nH]c3ccccc23)C(=O)N[C@@H](Cc2ccc(O)cc2)C(=O)N[C@@H](CC(C)C)C(=O)N[C@H](C(=O)NCC(N)=O)CSCC(=O)N[C@@H](Cc2ccccc2)C(=O)N(C)[C@@H](Cc2ccccc2)C(=O)N1C [Example 3191] ({CH2CO}-F[NMeF][NMeNle][dP]EV[NMeF][Dap][dP]WYLCG-NH2; thioether N-13)	0.385 to 6.74	4.78 to 72.9
CCCC[C@H]1C(=O)N2CCC[C@@H]2C(=O)N2C[C@H](N)C[C@H]2C(=O)N[C@@H](C(C)C)C(=O)N(C)[C@@H](Cc2ccccc2)C(=O)N[C@@H](Cc2ccc(O)cc2)C(=O)N2CC[C@@H]2C(=O)N[C@@H](Cc2c[nH]c3ccccc23)C(=O)N[C@@H](Cc2ccc(O)cc2)C(=O)N[C@@H](CC(C)C)C(=O)N[C@H](C(=O)NCC(N)=O)CSCC(=O)N[C@@H](Cc2cc(F)c(F)c(F)c2)C(=O)N(C)[C@@H](Cc2ccccc2)C(=O)N1C [Example 3192] ({CH2CO}-[Phe(3,4,5-F3)][NMeF][NMeNle][dP][Pro(4R-NH2)]V[NMeF]Y[dAze]WYLCG-NH2; thioether N-13)	0.385 to 6.74	0.158 to 4.71
CCCC[C@H]1C(=O)N2CCC[C@@H]2C(=O)N2C[C@H](N)C[C@H]2C(=O)N[C@@H](C(C)C)C(=O)N(C)[C@@H](Cc2ccccc2)C(=O)N[C@@H](Cc2ccc(O)cc2)C(=O)N2CCC[C@@H]2C(=O)N[C@@H](Cc2c[nH]c3ccccc23)C(=O)N[C@@H](Cc2ccc(O)cc2)C(=O)N[C@@H](CC(C)C)C(=O)N[C@H](C(=O)NCC(N)=O)CSCC(=O)N[C@@H](Cc2cc(F)c(F)c(F)c2)C(=O)N(C)[C@@H](Cc2ccccc2)C(=O)N1C [Example 3193] ({CH2CO}-[Phe(3,4,5-F3)][NMeF][NMeNle][dP][Pro(4R-NH2)]V[NMeF]Y[dP]WYLCG-NH2; thioether N-13)	0.385 to 6.74	0.158 to 4.71
CCCC[C@H]1C(=O)N2C[C@H](O)C[C@@H]2C(=O)N2C[C@H](N)C[C@H]2C(=O)N[C@@H](C(C)C)C(=O)N(C)[C@@H](Cc2ccccc2)C(=O)N[C@@H](Cc2ccc(O)cc2)C(=O)N2CCCC[C@@H]2C(=O)N[C@@H](Cc2c[nH]c3ccccc23)C(=O)N[C@@H](Cc2ccc(O)cc2)C(=O)N[C@@H](CC(C)C)C(=O)N[C@H](C(=O)NCC(N)=O)CSCC(=O)N[C@@H](Cc2cc(F)c(F)c(F)c2)C(=O)N(C)[C@@H](Cc2ccccc2)C(=O)N1C [Example 3196] ({CH2CO}-[Phe(3,4,5-F3)][NMeF][NMeNle][d(cisHyp)][Pro(4R-NH2)]V[NMeF]Y[dPip]WYLCG-NH2; thioether N-13)	0.385 to 6.74	0.158 to 4.71

Next, values leading:

IC50 (Human PD-L1/PD-1) [nM]	IC50 [1] [nM]	Compound
6.76 to 30.3	4.78 to 72.9	CCCC[C@H]1C(=O)N(C)CC(=O)N[C@@H](CC(=O)O)C(=O)N[C@@H](C(C)C)C(=O)N(C)[C@@H](Cc2ccccc2)C(=O)N[C@@H](Cc2ccc(O)cc2)C(=O)N(C)CC(=O)N[C@@H](Cc2c[nH]c3ccccc23)C(=O)N[C@@H](Cc2ccc(O)cc2)C(=O)N[C@@H](CC(C)C)C(=O)N[C@H](C(=O)NCC(N)=O)CSCC(=O)N[C@@H](Cc2cc(Cl)c(F)c(Cl)c2)C(=O)N(C)[C@@H](Cc2ccccc2)C(=O)N1C [Example 3185] ({CH2CO}-[X12][NMeF][NMeNle][Sar]DV[NMeF]Y[Sar]WYLCG-NH2; thioether N-13)
6.76 to 30.3	0.158 to 4.71	CCCC[C@H]1C(=O)N2CCC[C@@H]2C(=O)N[C@@H](CC(=O)O)C(=O)N[C@@H](C(C)C)C(=O)N(C)[C@@H](Cc2ccccc2)C(=O)N[C@@H](CCCCN)C(=O)N2CCC[C@@H]2C(=O)N[C@@H](Cc2c[nH]c3ccccc23)C(=O)N[C@@H](Cc2ccc(O)cc2)C(=O)N[C@@H](CC(C)C)C(=O)N[C@H](C(=O)NCC(N)=O)CSCC(=O)N[C@@H](Cc2ccccc2)C(=O)N(C)[C@@H](Cc2ccccc2)C(=O)N1C [Example 3187] (HELM PEPTIDE1{[O=C(C[*:3])[*:2]].F.[meF].[CCCC[C@@H](C(=O)[*:2])N(C)[*:1]].[dP].D.V.[meF].K.[dP].W.Y.L.C.G.[am]}$PEPTIDE1,PEPTIDE1,1:R3-14:R3$$$V2.0)
0.385 to 6.74	0.158 to 4.71	CCCC[C@H]1C(=O)N2CCC[C@@H]2C(=O)N[C@@H](CCCCN)C(=O)N[C@@H](C(C)C)C(=O)N(C)[C@@H](Cc2ccccc2)C(=O)N[C@@H](CCC(=O)O)C(=O)N2CCC[C@@H]2C(=O)N[C@@H](Cc2c[nH]c3ccccc23)C(=O)N[C@@H](Cc2ccc(O)cc2)C(=O)N[C@@H](CC(C)C)C(=O)N[C@H](C(=O)NCC(N)=O)CSCC(=O)N[C@@H](Cc2ccccc2)C(=O)N(C)[C@@H](Cc2ccccc2)C(=O)N1C [Example 3190] (HELM PEPTIDE1{[O=C(C[*:3])[*:2]].F.[meF].[CCCC[C@@H](C(=O)[*:2])N(C)[*:1]].[dP].K.V.[meF].E.[dP].W.Y.L.C.G.[am]}$PEPTIDE1,PEPTIDE1,1:R3-14:R3$$$V2.0)
0.385 to 6.74	0.158 to 4.71	CCCC[C@H]1C(=O)N2C[C@H](O)C[C@@H]2C(=O)N2C[C@H](N)C[C@H]2C(=O)N[C@@H](C(C)C)C(=O)N(C)[C@@H](Cc2ccccc2)C(=O)N[C@@H](Cc2ccc(O)cc2)C(=O)N2CC[C@@H]2C(=O)N[C@@H](Cc2c[nH]c3ccccc23)C(=O)N[C@@H](Cc2ccc(O)cc2)C(=O)N[C@@H](CC(C)C)C(=O)N[C@H](C(=O)NCC(N)=O)CSCC(=O)N[C@@H](Cc2cc(F)c(F)c(F)c2)C(=O)N(C)[C@@H](Cc2ccccc2)C(=O)N1C [Example 3195] ({CH2CO}-[Phe(3,4,5-F3)][NMeF][NMeNle][d(cisHyp)][Pro(4R-NH2)]V[NMeF]Y[dAze]WYLCG-NH2; thioether N-13)
0.385 to 6.74	0.158 to 4.71	CCCC[C@H]1C(=O)N2C[C@H](O)C[C@@H]2C(=O)N2C[C@H](N)C[C@H]2C(=O)N[C@@H](C(C)C)C(=O)N(C)[C@@H](Cc2ccccc2)C(=O)N[C@@H](Cc2ccc(O)cc2)C(=O)N(C)[C@H](CCC(=O)O)C(=O)N[C@@H](Cc2c[nH]c3ccccc23)C(=O)N[C@@H](Cc2ccc(O)cc2)C(=O)N[C@@H](CC(C)C)C(=O)N[C@H](C(=O)NCC(N)=O)CSCC(=O)N[C@@H](Cc2cc(F)c(F)c(F)c2)C(=O)N(C)[C@@H](Cc2ccccc2)C(=O)N1C [Example 3197] ({CH2CO}-[Phe(3,4,5-F3)][NMeF][NMeNle][d(cisHyp)][Pro(4R-NH2)]V[NMeF]Y[dNMeE]WYLCG-NH2; thioether N-13)
6.76 to 30.3	0.158 to 4.71	CCCC[C@H]1C(=O)N2CCC[C@@H]2C(=O)N[C@@H](CC(N)=O)C(=O)N[C@@H](C(C)C)C(=O)N(C)[C@@H](Cc2ccccc2)C(=O)N[C@@H](Cc2ccc(CN)cc2)C(=O)N2CCC[C@@H]2C(=O)N[C@@H](Cc2c[nH]c3ccccc23)C(=O)N[C@@H](Cc2ccc(O)cc2)C(=O)N[C@@H](CCCCN)C(=O)N[C@H](C(=O)NCC(N)=O)CSCC(=O)N[C@@H](Cc2cc(F)c(F)c(F)c2)C(=O)N(C)[C@@H](Cc2ccccc2)C(=O)N1C [Example 3198] ({CH2CO}-[Phe(3,4,5-F3)][NMeF][NMeNle][dP]NV[NMeF][Phe(4-CH2NH2)][dP]WYKCG-NH2; thioether N-13)

— US9850283B2, “Macrocyclic inhibitors of the PD-1/PD-L1 and CD80(B7-1)/PD-L1 protein/protein interactions” (BRISTOL-MYERS SQUIBB COMPANY, priority 2013, dated 2017)
